Patent US20180111913A1, “SUBSTITUTED BENZOFURAN DERIVATIVES AS NOVEL ANTIMYCOBACTERIAL AGENTS” (priority 2015, published 2018)
Like-named read-outs stand apart in the source and are kept apart here.

Biological target: Mtb Pks13-TE domain (wild-type) (Mycobacterium tuberculosis, UniProt I6X8D2)
Experiment: biochemical
Format: biochemical
[1] = Pks13-TE, 20 μM 4-MUH, read-out: IC50

Chain of Mtb Pks13-TE domain (wild-type) (I6X8D2 1451-1733): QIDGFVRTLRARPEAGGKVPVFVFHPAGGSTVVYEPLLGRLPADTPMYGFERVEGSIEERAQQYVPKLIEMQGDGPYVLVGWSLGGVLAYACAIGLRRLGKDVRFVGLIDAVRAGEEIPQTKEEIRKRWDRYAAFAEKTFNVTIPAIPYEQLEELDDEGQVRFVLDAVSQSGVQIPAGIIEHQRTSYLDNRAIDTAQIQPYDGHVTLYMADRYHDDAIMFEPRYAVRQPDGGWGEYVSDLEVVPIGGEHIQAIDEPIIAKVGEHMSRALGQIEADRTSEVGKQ

Cc1nc2c(CN3CCC(C)CC3)c(O)ccc2[nH]1 [compound 9]
IC50 [1]: 10 µM

CCOC(=O)c1c(-c2ccccc2)oc2ccc(OC)c(CC3CCCCC3)c12 [compound 15]
IC50 (Pks13-TE, read-out: IC50 (μM), given as NB / NI): > 20 µM

CCOC(=O)c1c(-c2ccc(O)cc2)oc2ccc(O)c(CN3CCCCC3)c12 [compound 22]
IC50 (Mtb Pks13-TE domain, mean ± s.d. of triplicates, read-out: IC50): 0.17 ± 0.02 µM | IC50 [1]: 0.19 µM

CCOC(=O)c1c(-c2ccccc2)oc2ccc(O)c(CN3CCCCC3=O)c12 [compound 52]
IC50 [1]: > 20 µM

CNC(=O)c1c(-c2ccccc2)oc2cc(O)cc(CN3CCC(O)CC3)c12 [compound 68]
IC50 [1]: > 20 µM

CCOC(=O)c1c(-c2ccc(F)cc2)oc2cc(O)cc(CC[N+](C)(C)C)c12 [compound 75]
IC50 [1]: > 20 µM

CC(C)NCCc1cc(O)cc2oc(-c3ccc(F)cc3)c(CO)c12 [compound 76]
IC50 [1]: > 20 µM

CCOC(=O)c1c(-c2ccc(F)cc2)oc2cc(O)cc(CCNC(CO)CO)c12 [compound 78]
IC50 [1]: 13 µM

CCOC(=O)c1c(-c2ccc(F)cc2)oc2cc(O)cc(CCNCC(O)CO)c12 (stereo not shown) [compound 79]
IC50 [1]: > 20 µM

CCOC(=O)c1c(-c2ccc(F)cc2)oc2cc(O)cc(CCNCCN)c12 [compound 80]
IC50 [1]: > 40 µM

CCOC(=O)c1c(-c2ccc(F)cc2)oc2cc(O)cc(CCNC(=O)C(C)N)c12 (stereo not shown) [compound 81]
IC50 [1]: > 40 µM

Cc1nc2c(CN3CCCC3)c(O)ccc2[nH]1 [compound 111]
IC50 [1]: 10 µM

CCOC(=O)c1c(-c2ccccc2)oc2ccc(O)c(CN3CCC(F)(F)CC3)c12 [compound 119]
IC50 [1]: 0.8 µM

CNC(=O)c1c(-c2ccccc2)oc2ccc(O)c(CCN3CCS(=O)(=O)CC3)c12 [compound 138]
IC50 [1]: > 40 µM

CNC(=O)c1c(-c2ccccc2)oc2ccc(O)c(CCN3CCNC(=O)C3)c12 [compound 139]
IC50 [1]: > 40 µM

CNC(=O)c1c(-c2ccccc2)oc2ccc(O)c(CCN(C(C)C)C(C)C)c12 [compound 140]
IC50 [1]: > 40 µM

CNC(=O)c1c(-c2ccccc2)oc2ccc(O)c(CCN3CCCCC3)c12 [compound 143]
IC50 [1]: > 20 µM

CNC(=O)c1c(-c2ccccc2)oc2ccc(O)c(CCNc3ccccc3)c12 [compound 144]
IC50 [1]: > 40 µM

CNC(=O)c1c(-c2ccccc2)oc2ccc(O)c(CCNC3CCCCC3)c12 [compound 145]
IC50 [1]: 10 µM

CNC(=O)c1c(-c2ccccc2)oc2ccc(O)c(CCNC3CCC3)c12 [compound 147]
IC50 [1]: 3.5 µM

CCOC(=O)c1c(-c2ccccc2)oc2ccc(O)c(CCN3[C@H](C)CCC[C@@H]3C)c12 [compound 150]
IC50 [1]: > 40 µM

CNC(=O)c1c(-c2ccccc2)oc2ccc(O)c(CCN3CCC(O)CC3)c12 [compound 152]
IC50 [1]: > 40 µM

CNC(=O)c1c(-c2ccccc2)oc2ccc(O)c(CCN3CCC(CO)CC3)c12 [compound 153]
IC50 [1]: > 40 µM

CNC(=O)c1c(-c2ccccc2)oc2ccc(O)c(CCN3CCCC(CO)C3)c12 (stereo not shown) [compound 154]
IC50 [1]: > 20 µM

CNC(=O)c1c(-c2ccccc2)oc2ccc(O)c(CCN3CCCCC3CO)c12 (stereo not shown) [compound 155]
IC50 [1]: > 40 µM

CNC(=O)c1c(-c2ccccc2)oc2ccc(O)c(CCN3CCCCC3CCO)c12 (stereo not shown) [compound 156]
IC50 [1]: > 40 µM

CNC(=O)c1c(-c2ccccc2)oc2ccc(O)c(CCN3CCN(CCO)CC3)c12 [compound 157]
IC50 [1]: > 40 µM

CNC(=O)c1c(-c2ccccc2)oc2ccc(O)c(CCN3CCC(CCO)CC3)c12 [compound 158]
IC50 [1]: 20 µM

CNC(=O)c1c(-c2ccccc2)oc2ccc(O)c(CCCN3CC(O)C(O)C3)c12 (stereo not shown) [compound 163]
IC50 [1]: > 40 µM

CCOC(=O)c1c(-c2ccccc2)oc2ccc(O)c(CCCN3CCCC(CO)C3)c12 (stereo not shown) [compound 169]
IC50 [1]: > 40 µM

CCOC(=O)c1c(-c2ccccc2)oc2ccc(O)c(CCCN3CCCC3CCO)c12 (stereo not shown) [compound 170]
IC50 [1]: 4.3 µM

CCOC(=O)c1c(-c2ccccc2)oc2ccc(O)c(CCCN3CCSC3)c12 [compound 173]
IC50 [1]: 5 µM

CCOC(=O)c1c(-c2ccccc2)oc2ccc(O)c(CCC3CCNCC3)c12 [compound 176]
IC50 [1]: > 40 µM

CCOC(=O)c1c(-c2ccccc2)oc2ccc(O)c(CCN3CCSC3C)c12 (stereo not shown) [compound 177]
IC50 [1]: 1 µM

CCOC(=O)c1c(-c2ccccc2)oc2ccc(O)c(CCN3CCC(CCCCO)C3)c12 (stereo not shown) [compound 178]
IC50 [1]: 2 µM

CCOC(=O)c1c(-c2ccccc2)oc2ccc(O)c(CCCN3CCC[C@H]3C)c12 [compound 180]
IC50 [1]: 1.9 µM

CCOC(=O)c1c(-c2ccccc2)oc2ccc(O)c(CCCN3CCCC3C/C=C/C(=O)NC)c12 (stereo not shown) [compound 181]
IC50 [1]: 2.5 µM

CCOC(=O)c1c(-c2ccccc2)oc2ccc(O)c(CCCN3CCCC3CCC(=O)NC)c12 (stereo not shown) [compound 184]
IC50 [1]: > 10 µM

CCOC(=O)c1c(-c2ccccc2)oc2ccc(O)c(CCN3CCC(CCCC(N)=O)C3)c12 (stereo not shown) [compound 187]
IC50 [1]: 0.5 µM

CNC(=O)c1c(-c2ccccc2)oc2ccc(O)c(CCCNCc3ncco3)c12 [compound 190]
IC50 [1]: > 40 µM

CCOC(=O)c1c(-c2ccccc2)oc2ccc(O)c(CCN3CCCOC3)c12 [compound 193]
IC50 [1]: 5 µM

CNC(=O)c1c(-c2ccccc2)oc2ccc(O)c(CCCN3CCCC4(CC(=O)C4)C3)c12 [compound 194]
IC50 [1]: > 40 µM

CNC(=O)c1c(-c2ccccc2)oc2ccc(O)c(CCCNCC(C)c3ncco3)c12 (stereo not shown) [compound 196]
IC50 [1]: > 20 µM

CCOC(=O)c1c(-c2ccccc2)oc2ccc(O)c(CCCN3CC(O)C3)c12 [compound 197]
IC50 [1]: 7.5 µM

CCOC(=O)c1c(-c2ccccc2)oc2ccc(O)c(CCCN3CC(CO)C3)c12 [compound 198]
IC50 [1]: 5 µM

CNC(=O)c1c(-c2ccccc2)oc2ccc(O)c(CCCN3CCC4(CC3)CC(=O)C4)c12 [compound 207]
IC50 [1]: 10 µM

CN(C)C(=O)c1c(-c2ccc(O)cc2)oc2cc(O)cc(CCCN3CCC3)c12 [compound 208]
IC50 [1]: 4 µM

CN(C)CCc1c(O)ccc2oc(-c3ccc(O)cc3)c(C(=O)N(C)C)c12 [compound 210]
IC50 [1]: 12 µM

CCOC(=O)c1c(-c2ccc(F)cc2)oc2cc(O)cc(CCNC3CCC(O)CC3)c12 (stereo not shown) [compound 225]
IC50 [1]: > 40 µM

CCOC(=O)c1c(-c2ccc(F)cc2)oc2cc(O)cc(CCNC(=O)C3CCCN3)c12 (stereo not shown) [compound 226]
IC50 [1]: > 40 µM

CCOC(=O)c1c(-c2ccccc2)oc2ccc(O)c(CCN3CC(C#N)C3)c12 [compound 227]
IC50 [1]: > 20 µM

CNC(=O)c1c(-c2ccccc2)oc2ccc(O)c(CCN3CCC(C(F)(F)F)CC3)c12 [compound 232]
IC50 [1]: > 20 µM

CNC(=O)c1c(-c2ccccc2)oc2ccc(O)c(CCN3CCCC(C(F)(F)F)C3)c12 (stereo not shown) [compound 233]
IC50 [1]: > 10 µM

CCOC(=O)c1c(-c2ccccc2)oc2ccc(O)c(CCCC3CCCC3)c12 [compound 236]
IC50 [1]: > 10 µM

CNC(=O)c1c(-c2ccccc2)oc2ccc(O)c(CCN3CCCCC3C(F)(F)F)c12 (stereo not shown) [compound 237]
IC50 [1]: > 20 µM

CNC(=O)c1c(-c2ccccc2)oc2ccc(O)c(CCC3CCOC3=O)c12 (stereo not shown) [compound 240]
IC50 [1]: > 40 µM

CCOC(=O)c1c(-c2ccccc2)oc2ccc(O)c(CCNC3CCOCC3)c12 [compound 241]
IC50 [1]: > 20 µM

CCOC(=O)c1c(-c2ccc(F)cc2)oc2cc(O)cc(CCN)c12 [compound 242]
IC50 [1]: > 20 µM

CCOC(=O)c1c(-c2ccc(F)cc2)oc2cc(O)cc(CCNC(=O)OCc3ccccc3)c12 [compound 243]
IC50 [1]: > 40 µM

CCOC(=O)c1c(-c2ccccc2)oc2ccc(O)c(CCN[C@@H](CC(N)=O)C(=O)O)c12 [compound 246]
IC50 [1]: 20 µM
